In assay [1] the target is T1, HiBit-BRG1 fusion protein (Homo sapiens, UniProt P51532).
T1 construct: expressed in transfected cells
The assay is described as follows: HiBiT-BRG1 cell-based degradation assay (Nano-Glo HiBiT Lytic Detection, 24 h). Particulars: HeLa cell line expressing HiBit-BRG1 and LgBit; for Dmax: read-out: BRG1 HiBit Degradation Maximum (%). Here is the method: Procedure: A stable HeLa cell line expressing HiBiT-BRM was generated. On day 0, 5000 cells were seeded in 40 μL of media into each well of 384-well cell culture plates. […] Subsequently plates were incubated for 24 h in a standard tissue culture incubator and equilibrated at room temperature for 15 minutes. Nano-Glo HiBiT Lytic Detection System (Promega N3050) reagent was freshly prepared and 20 ul was added to each well. Upon addition of this LgBit-containing reagent, the HiBiT and LgBiT proteins associate to form the luminescent NanoBiT luciferase. The plates were shaken for 10 minutes at room temperature and the bioluminescence read using an EnVision plate reader (PerkinElmer).
For measurement of BRG1 degradation, a stable HeLa cell line expressing HiBit-BRG1 and LgBit was generated. The same protocol as above was then followed.
(§1) The degradation % was calculated using the following formula: % degradation=100%−100%×(LumSample−LumLC)/(LumHC−LumLC). DMSO treated cells are employed as High Control (HC) and 2 μM of a known BRM/BRG1 degrader standard treated cells are employed as Low Control (LC).
On the technique in general: With HiBiT, luminescence reflects the tagged protein that the partner subunit can reach.

For another assay, the target named is T2, HiBit-BRM fusion protein (Homo sapiens, UniProt P51531).
T2 construct: expressed in transfected cells
The assay is described as follows: HiBiT-BRM cell-based degradation assay (Nano-Glo HiBiT Lytic Detection, 24 h). As to conditions: HeLa cell line expressing HiBiT-BRM; for DC50: read-out: BRM HiBit Degradation IC50. As to the method: Procedure: A stable HeLa cell line expressing HiBiT-BRM was generated. On day 0, 5000 cells were seeded in 40 μL of media into each well of 384-well cell culture plates. On day 1, cells were treated with 120 nL DMSO or 120 nL of 3-fold serially DMSO-diluted compounds (10 points in duplicate with 30 μM as final top dose). Subsequently plates were incubated for 24 h in a standard tissue culture incubator and equilibrated at room temperature for 15 minutes. Nano-Glo HiBiT Lytic Detection System (Promega N3050) reagent was freshly prepared and 20 ul was added to each well. Upon addition of this LgBit-containing reagent, the HiBiT and LgBiT proteins associate to form the luminescent NanoBiT luciferase. The plates were shaken for 10 minutes at room temperature and the bioluminescence read using an EnVision plate reader (PerkinElmer).
as §1

The structures appear in SMILES notation.

T1 sequence (P51532 whole entry, the tested form may be a part): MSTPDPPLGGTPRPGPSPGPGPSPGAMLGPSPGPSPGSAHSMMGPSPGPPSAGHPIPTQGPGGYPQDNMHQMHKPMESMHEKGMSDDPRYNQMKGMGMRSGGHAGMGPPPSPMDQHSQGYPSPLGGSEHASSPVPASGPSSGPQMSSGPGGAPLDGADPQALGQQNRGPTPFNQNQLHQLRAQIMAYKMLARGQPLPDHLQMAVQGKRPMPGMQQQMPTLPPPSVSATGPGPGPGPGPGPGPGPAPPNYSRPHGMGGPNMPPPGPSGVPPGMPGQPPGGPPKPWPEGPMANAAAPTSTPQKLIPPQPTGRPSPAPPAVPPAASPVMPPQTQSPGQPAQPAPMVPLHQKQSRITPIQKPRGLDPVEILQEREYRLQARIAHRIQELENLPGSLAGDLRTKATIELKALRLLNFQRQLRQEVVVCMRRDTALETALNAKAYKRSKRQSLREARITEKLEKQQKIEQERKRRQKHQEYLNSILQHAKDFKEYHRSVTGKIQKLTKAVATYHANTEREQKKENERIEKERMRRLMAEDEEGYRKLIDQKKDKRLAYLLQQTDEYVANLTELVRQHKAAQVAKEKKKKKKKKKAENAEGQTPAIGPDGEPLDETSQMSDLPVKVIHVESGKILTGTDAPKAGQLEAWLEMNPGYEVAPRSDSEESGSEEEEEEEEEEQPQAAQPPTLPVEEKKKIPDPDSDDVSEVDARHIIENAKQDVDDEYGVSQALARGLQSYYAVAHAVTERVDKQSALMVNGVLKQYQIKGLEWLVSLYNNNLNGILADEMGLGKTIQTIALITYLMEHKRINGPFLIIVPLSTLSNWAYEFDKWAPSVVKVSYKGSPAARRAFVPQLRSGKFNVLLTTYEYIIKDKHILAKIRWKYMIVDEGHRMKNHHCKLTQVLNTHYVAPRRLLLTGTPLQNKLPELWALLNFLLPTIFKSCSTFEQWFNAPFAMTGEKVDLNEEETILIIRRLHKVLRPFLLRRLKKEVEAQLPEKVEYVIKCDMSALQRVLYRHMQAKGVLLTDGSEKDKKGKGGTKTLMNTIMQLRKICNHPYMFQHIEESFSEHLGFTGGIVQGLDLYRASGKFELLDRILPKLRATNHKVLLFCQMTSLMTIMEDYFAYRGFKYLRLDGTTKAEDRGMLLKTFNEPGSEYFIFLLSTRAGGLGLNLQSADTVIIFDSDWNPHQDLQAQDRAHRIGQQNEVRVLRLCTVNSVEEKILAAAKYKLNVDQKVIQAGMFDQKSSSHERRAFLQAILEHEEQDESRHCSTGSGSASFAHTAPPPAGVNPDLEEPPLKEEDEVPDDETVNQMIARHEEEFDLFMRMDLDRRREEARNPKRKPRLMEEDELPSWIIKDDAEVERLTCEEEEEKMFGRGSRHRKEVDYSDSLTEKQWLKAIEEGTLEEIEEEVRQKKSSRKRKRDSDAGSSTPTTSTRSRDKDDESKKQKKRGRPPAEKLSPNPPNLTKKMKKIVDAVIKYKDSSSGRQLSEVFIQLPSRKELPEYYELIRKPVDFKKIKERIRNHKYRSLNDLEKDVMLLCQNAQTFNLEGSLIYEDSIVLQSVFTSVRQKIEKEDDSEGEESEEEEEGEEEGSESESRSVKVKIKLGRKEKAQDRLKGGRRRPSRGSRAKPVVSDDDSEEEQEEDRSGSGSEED
T2 sequence (P51531 whole entry, the tested form may be a part): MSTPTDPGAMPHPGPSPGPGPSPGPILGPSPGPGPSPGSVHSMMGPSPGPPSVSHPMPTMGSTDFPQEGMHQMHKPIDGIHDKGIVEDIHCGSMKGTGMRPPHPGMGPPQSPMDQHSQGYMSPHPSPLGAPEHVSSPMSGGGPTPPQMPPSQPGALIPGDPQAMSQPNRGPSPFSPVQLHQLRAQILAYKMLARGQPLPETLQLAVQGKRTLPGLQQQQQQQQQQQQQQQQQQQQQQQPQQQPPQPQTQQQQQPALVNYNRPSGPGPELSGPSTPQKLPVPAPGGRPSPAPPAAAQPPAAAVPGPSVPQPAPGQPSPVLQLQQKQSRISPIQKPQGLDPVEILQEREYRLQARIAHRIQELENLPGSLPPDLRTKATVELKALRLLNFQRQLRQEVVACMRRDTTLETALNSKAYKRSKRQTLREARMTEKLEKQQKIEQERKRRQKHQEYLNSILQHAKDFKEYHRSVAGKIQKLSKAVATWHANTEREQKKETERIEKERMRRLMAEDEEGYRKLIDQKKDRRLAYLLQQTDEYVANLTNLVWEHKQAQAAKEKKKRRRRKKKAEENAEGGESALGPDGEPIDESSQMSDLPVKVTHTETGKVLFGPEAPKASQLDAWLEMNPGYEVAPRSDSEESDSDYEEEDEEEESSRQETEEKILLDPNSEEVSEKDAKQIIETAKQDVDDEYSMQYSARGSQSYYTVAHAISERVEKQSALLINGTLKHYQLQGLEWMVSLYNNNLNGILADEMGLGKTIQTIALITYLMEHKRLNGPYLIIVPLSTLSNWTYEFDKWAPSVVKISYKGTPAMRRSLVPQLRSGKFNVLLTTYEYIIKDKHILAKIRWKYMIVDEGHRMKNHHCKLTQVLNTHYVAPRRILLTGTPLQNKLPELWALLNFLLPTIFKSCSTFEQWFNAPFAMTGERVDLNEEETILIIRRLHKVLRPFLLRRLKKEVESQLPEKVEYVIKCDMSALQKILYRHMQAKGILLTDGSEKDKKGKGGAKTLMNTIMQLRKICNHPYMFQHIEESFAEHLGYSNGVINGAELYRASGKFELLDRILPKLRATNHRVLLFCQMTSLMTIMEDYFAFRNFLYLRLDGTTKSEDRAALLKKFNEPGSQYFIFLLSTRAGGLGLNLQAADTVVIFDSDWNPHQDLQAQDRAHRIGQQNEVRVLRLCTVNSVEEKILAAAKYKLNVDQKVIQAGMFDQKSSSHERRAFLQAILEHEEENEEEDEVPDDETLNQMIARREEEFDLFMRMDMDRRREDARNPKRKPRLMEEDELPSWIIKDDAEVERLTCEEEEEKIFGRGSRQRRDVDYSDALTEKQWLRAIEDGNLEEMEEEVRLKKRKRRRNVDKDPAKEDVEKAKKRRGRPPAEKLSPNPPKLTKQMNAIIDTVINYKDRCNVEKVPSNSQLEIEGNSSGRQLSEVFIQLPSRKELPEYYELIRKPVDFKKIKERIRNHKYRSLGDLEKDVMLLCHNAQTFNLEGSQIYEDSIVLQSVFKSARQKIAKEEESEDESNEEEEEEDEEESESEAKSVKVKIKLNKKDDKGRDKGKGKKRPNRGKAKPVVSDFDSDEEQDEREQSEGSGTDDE

Consider `Cc1ncsc1-c1ccc([C@H](C)NC(=O)[C@@H]2C[C@@H](O)CN2C(=O)[C@@H](c2cc(C3CN(C(=O)[C@H]4CCc5[nH]c6nnc(-c7ccccc7O)cc6c5C4)C3)no2)C(C)C)cc1` (relative stereo) [Compound 157, (2S,4R)-4-hydroxy-1-[(2R*)-2-(3-{1-[(6R**)-3-(2-hydroxyphenyl)-5H,6H,7H,8H,9H-pyridazino[3,4-b]indole-6-carbonyl]azetidin-3-yl}-1,2-oxazol-5-yl)-3-methylbutanoyl]-N-[(1S)-1-[4-(4-methyl-1,3-thiazol-5-yl)phenyl]ethyl]pyrrolidine-2-carboxamide], for which the Dmax in assay [1] was more than 75%. The DC50 in assay [1] (read-out: BRMG1 HiBit Degradation IC50) is more than 100 nM. At HiBit-BRM fusion protein, the “BRM HiBit Degradation Maximum (%)” value was “A (“A” indicates maximum degradation ≥ 75%)” and the DC50 was more than 100 nM.
Take `Cc1ncsc1-c1ccc([C@H](C)NC(=O)[C@@H]2C[C@@H](O)CN2C(=O)[C@@H](c2cc(OCCN3CC(C(C)(C)c4cc5cc(-c6ccccc6O)nnc5[nH]4)C3)no2)C(C)C)cc1` (racemic) [Compound 289, (2S,4R)-4-hydroxy-1-((R)-2-(3-(2-(3-(2-(3-(2-hydroxyphenyl)-7H-pyrrolo[2,3-c]pyridazin-6-yl)propan-2-yl)azetidin-1-yl)ethoxy)isoxazol-5-yl)-3-methylbutanoyl)-N-((S)-1-(4-(4-methylthiazol-5-yl)phenyl)ethyl)pyrrolidine-2-carboxamide]: the Dmax in assay [1] was less than 50%. Further, at HiBit-BRM fusion protein, the “BRM HiBit Degradation Maximum (%)” value is “A (“A” indicates maximum degradation ≥ 75%)” and the DC50 is more than 10 nM.
`Cc1ncsc1-c1ccc([C@H](C)NC(=O)[C@@H]2C[C@@H](O)CN2C(=O)[C@@H](NC(=O)CCCCCCCCCCCCC(=O)N2CC(c3cc4cc(-c5ccccc5O)nnc4[nH]3)C2)C(C)(C)C)cc1` [Compound 12, (2S,4R)-4-hydroxy-1-((S)-2-(14-(3-(3-(2-hydroxyphenyl)-7H-pyrrolo[2,3-c]pyridazin-6-yl)azetidin-1-yl)-14-oxotetradecanamido)-3,3-dimethylbutanoyl)-N-((S)-1-(4-(4-methylthiazol-5-yl)phenyl)ethyl)pyrrolidine-2-carboxamide]: the Dmax in assay [1] is less than 50%. Moreover, at HiBit-BRM fusion protein, the “BRM HiBit Degradation Maximum (%)” value is given as “A (“A” indicates maximum degradation ≥ 75%)” and the DC50 is more than 100 nM.
Consider `Cc1ncsc1-c1ccc(CNC(=O)[C@@H]2C[C@@H](O)CN2C(=O)[C@@H](NC(=O)CCCN2CC(c3cc4cc(-c5ccccc5O)nnc4[nH]3)C2)C(C)(C)C)cc1` (racemic) [Compound 60, (2S,4R)-4-hydroxy-1-((S)-2-(4-(3-(3-(2-hydroxyphenyl)-7H-pyrrolo[2,3-c]pyridazin-6-yl)azetidin-1-yl)butanamido)-3,3-dimethylbutanoyl)-N-(4-(4-methylthiazol-5-yl)benzyl)pyrrolidine-2-carboxamide], for which the Dmax in assay [1] is less than 50%. Also, the “BRM HiBit Degradation Maximum (%)” value at HiBit-BRM fusion protein was “C (“C” indicates maximum degradation < 50%)”.
For the compound `Cc1ncsc1-c1ccc([C@H](C)NC(=O)[C@@H]2C[C@@H](O)CN2C(=O)[C@@H](NC(=O)CCCCCCCCC(=O)N2CC(c3cc4cc(-c5ccccc5O)nnc4[nH]3)C2)C(C)(C)C)cc1` [Compound 1, (2S,4R)-4-hydroxy-1-((S)-2-(10-(3-(3-(2-hydroxyphenyl)-7H-pyrrolo[2,3-c]pyridazin-6-yl)azetidin-1-yl)-10-oxodecanamido)-3,3-dimethylbutanoyl)-N—((S)-1-(4-(4-methylthiazol-5-yl)phenyl)ethyl)pyrrolidine-2-carboxamide], the Dmax in assay [1] is less than 50%. At HiBit-BRM fusion protein, the “BRM HiBit Degradation Maximum (%)” value is given as “A (“A” indicates maximum degradation ≥ 75%)” and the DC50 is more than 100 nM.
Take `Cc1ncsc1-c1ccc([C@H](C)NC(=O)[C@@H]2C[C@@H](O)CN2C(=O)[C@@H](NC(=O)CCCCCCCCCCCCCC(=O)N2CC(c3cc4cc(-c5ccccc5O)nnc4[nH]3)C2)C(C)(C)C)cc1` [Compound 11, (2S,4R)-4-hydroxy-1-((S)-2-(15-(3-(3-(2-hydroxyphenyl)-7H-pyrrolo[2,3-c]pyridazin-6-yl)azetidin-1-yl)-15-oxopentadecanamido)-3,3-dimethylbutanoyl)-N-((S)-1-(4-(4-methylthiazol-5-yl)phenyl)ethyl)pyrrolidine-2-carboxamide]: the Dmax in assay [1] was less than 50%. On HiBit-BRM fusion protein, the “BRM HiBit Degradation Maximum (%)” value is recorded as “B (“B” indicates maximum degradation ≥ 50%)” and the DC50 was more than 100 nM.
With `Cc1ncsc1-c1ccc([C@H](C)NC(=O)[C@@H]2C[C@@H](O)CN2C(=O)[C@@H](c2cc(OCCN[C@@H]3CCc4[nH]c5nnc(-c6ccccc6O)cc5c4C3)no2)C(C)C)cc1` [Compound 181, (2S,4R)-4-hydroxy-1-((R)-2-(3-(2-(((R)-3-(2-hydroxyphenyl)-6,7,8,9-tetrahydro-5H-pyridazino[3,4-b]indol-6-yl)amino)ethoxy)isoxazol-5-yl)-3-methylbutanoyl)-N-((S)-1-(4-(4-methylthiazol-5-yl)phenyl)ethyl)pyrrolidine-2-carboxamide], in assay [1], the Dmax was less than 50%. Also, at HiBit-BRM fusion protein, the “BRM HiBit Degradation Maximum (%)” value was “A (“A” indicates maximum degradation ≥ 75%)” and the DC50 was more than 100 nM.
In the case of `Cc1ncsc1-c1ccc([C@H](C)NC(=O)[C@@H]2C[C@@H](O)CN2C(=O)[C@@H](c2cc(OCCN(C)CCC(=O)N3CC(c4cc5cc(-c6ccccc6O)nnc5[nH]4)C3)no2)C(C)C)cc1` (racemic) [Compound 64, (2S,4R)-4-hydroxy-1-((R)-2-(3-(2-((3-(3-(3-(2-hydroxyphenyl)-7H-pyrrolo[2,3-c]pyridazin-6-yl)azetidin-1-yl)-3-oxopropyl)(methyl)amino)ethoxy)isoxazol-5-yl)-3-methylbutanoyl)-N-((S)-1-(4-(4-methylthiazol-5-yl)phenyl)ethyl)pyrrolidine-2-carboxamide], in assay [1], the Dmax was less than 50%. In addition, on HiBit-BRM fusion protein, the “BRM HiBit Degradation Maximum (%)” value was “B (“B” indicates maximum degradation ≥ 50%)” and the DC50 is more than 100 nM.
Taken in the same sequence, the figures for `Cc1ncsc1-c1ccc([C@H](C)NC(=O)[C@@H]2C[C@@H](O)CN2C(=O)[C@@H](c2cc(OCCN3CCC[C@H]3c3cc4cc(-c5ccccc5O)nnc4[nH]3)no2)C(C)C)cc1` (racemic) [Compound 260, (2S,4R)-4-hydroxy-1-((R)-2-(3-(2-((S)-2-(3-(2-hydroxyphenyl)-7H-pyrrolo[2,3-c]pyridazin-6-yl)pyrrolidin-1-yl)ethoxy)isoxazol-5-yl)-3-methylbutanoyl)-N-((S)-1-(4-(4-methylthiazol-5-yl)phenyl)ethyl)pyrrolidine-2-carboxamide] were less than 50%, “B (“B” indicates maximum degradation ≥ 50%)” and more than 10 nM.
Consider `Cc1ncsc1-c1ccc([C@H](C)NC(=O)[C@@H]2C[C@@H](O)CN2C(=O)[C@@H](c2cc(OCCN[C@H]3CCc4[nH]c5nnc(-c6ccccc6O)cc5c4C3)no2)C(C)C)cc1` (single isomer, unassigned) [Compound 200], for which the Dmax in assay [1] is less than 50%. In addition, on HiBit-BRM fusion protein, the “BRM HiBit Degradation Maximum (%)” value is reported as “A (“A” indicates maximum degradation ≥ 75%)” and the DC50 is more than 10 nM.

The record behind these values is patent publication US20240024488A1, “COMPOUNDS AND USES THEREOF” (Foghorn Therapeutics Inc., priority 2020, published 2024).
